This is an account of results in ChEMBL document CHEMBL3886489, “Fused pyrazole derivatives as novel ERK inhibitors” (2016).

pKd: −log10 of the molar value.

This experiment concerns the target Mitogen-activated protein kinase 1 (Mus musculus, UniProt P63085). Nature of the experiment: TdF (Temperature Dependence Fluorescence) Assay: The SAR (Structure Activity Relationship) for ERK ligands covered by this invention was interrogated using the TdF (Temperature Dependence Fluorescence) assay or best known as thermal shift assay. (M. W. Pantoliano, et al., "High-density miniaturized thermal shift assays as a general strategy for drug discovery," J. Biomol. Screen 6 (2001) 429-440) The TdF assay was mainly conducted in the 96-well based CHROMO-4 real time fluorescence plate reader (BioRad). The Sypro Orange (Sigma-Aldrich), environmentally sensitive fluorescence dye, was used to monitor the protein folding-unfolding transition. Protein-ligand binding was gauged by the change (or shift) in the unfolding transition temperature (ΔTm) acquired at protein alone with respect to protein in the presence of ligand of interest.Compound of interest was first prepared in DMSO stock (typical concentration: 10 mM). […] Final percentage of DMSO resided in the sample was 2%. The sample plate was heated from 30° C. to 90° C. with thermal ramping rate of 1° C./min.

Sequence of Mitogen-activated protein kinase 1 (P63085 whole entry): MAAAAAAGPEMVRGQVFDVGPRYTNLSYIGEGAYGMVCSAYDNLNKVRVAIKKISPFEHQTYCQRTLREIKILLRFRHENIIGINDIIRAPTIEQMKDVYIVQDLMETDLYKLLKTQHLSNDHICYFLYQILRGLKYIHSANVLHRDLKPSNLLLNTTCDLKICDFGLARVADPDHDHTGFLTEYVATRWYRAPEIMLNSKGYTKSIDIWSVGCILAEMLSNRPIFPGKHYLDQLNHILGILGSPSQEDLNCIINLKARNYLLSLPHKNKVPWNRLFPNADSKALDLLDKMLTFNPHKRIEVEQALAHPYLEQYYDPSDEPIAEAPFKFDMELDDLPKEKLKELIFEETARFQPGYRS

One may read the pKd as −log10 of the Kd, conventionally taken in molar units. For the compound `O=C(N[C@H]1CNC[C@@H]1c1ccccc1)N1CCc2[nH]nc(-c3ccncc3)c2C1` (racemic), the pKd is 8.22.
